Data as given in patent US5843959A, “Methods and bicyclic polyamine compositions for the treatment of inflammation” (University of Florida Research Foundation, Inc., priority 1997, dated 1998).

Legend:
[1] = test system: BALB/c responder splenocytes with CBA/J stimulator cells; test: Mixed lymphocyte response (MLR); assay type: cell-based, mouse (BALB/c
Description: (§1) This study examined the potential immunomodulatory activities of PIP[4,4,4] on mouse spleen cells using in vitro techniques. The effect of the compound on the ability of murine splenocytes to respond to the […] mitogen concanavalin A (Con A) and the B cell mitogen lipopolysaccharide (LPS) was studied. […] In addition, the compound was tested for its effect on the mixed lymphocyte response (MLR). The MLR is an in vitro manifestation of cell-mediated immunity in which T cells respond to differences in major histocompatibility complex (MHC) class II molecules (Ia antigens) expressed on foreign or allogeneic leukocytes (primarily B cells and […]/monocytes).
(§2) a. Preparation of cells--Under sterile conditions, spleens were removed from BALB/c (H-2^d) and CBA/J (H-2^k) mice. BALB/c splenocytes were used as responder cells in the mitogen assays and the MLR assays, whereas CBA/J cells were used as stimulator cells in the MLR assays. […] Cells were exposed to various concentrations of the test compounds for the entire culture period. The initial dilutions in medium were filter sterilized to maintain aseptic conditions.
c. […] Thus, a BALB/c (2×10^5 cells/well) anti-CBA/J (8×10^5 cells/well) MLR combination was used in these studies. CBA/J spleen cells were irradiated with 2,000 R to prevent them from responding to BALB/c MHC antigens. Triplicate wells were set up in 96-well flat-bottom microtiter plates for all treated cultures and positive controls (100% of control) were performed in replicates of nine wells. Plates were incubated at 37° C. in a humidified CO2 incubator for 5 days, pulsed with 1 μCI […]/well for 6-16 hours, harvested and counted in a liquid scintillation counter. All data were processed using Lotus 1-2-3 and SigmaPlot software.

[2] = test system: BALB/c splenocytes stimulated with Con A; test: Mitogen response to Con A (T cell proliferation); assay type: cell-based, mouse (BALB/c)
Description: as §1, §2
b. Mitogen assays--Con A and LPS were obtained from Sigma Chemical Co. (St. Louis, Mo., U.S.A.). 2×10^5 BALB/c splenocytes were added per well. […] Triplicate wells were set up in 96-well flat-bottom microtiter plates for all treated cultures and positive controls (100% of control) were performed in replicates of nine wells. Plates were incubated at 37° C. in a humidified CO2 incubator for 3 days, pulsed with 1 μCi ^3 H-TdR/well for 6-16 hours, harvested and counted in a liquid scintillation counter. All data were processed using Lotus 1-2-3 and SigmaPlot software.

## C(CCNCC1CCNCC1)CNCC1CCNCC1 [PIP[4,4,4], N,N'-Bis(4-piperidinylmethyl)-1,4-butanediamine]
[1]
  Effect on MLR (in words): MLR was inhibited by PIP[4,4,4] primarily at 10 and 100 μm
[1]; MLR, 5 days, drug 0.010 μm
  Proliferative response (CPM), Mean ± SD: 330859 ± 11640 CPM
[1]; MLR, 5 days, drug 0.100 μm
  Proliferative response (CPM), Mean ± SD: 411919 ± 6106 CPM
[1]; MLR, 5 days, drug 1.000 μm
  Proliferative response (CPM), Mean ± SD: 54594 ± 11873 CPM
[1]; MLR, 5 days, drug 10.000 μm
  Proliferative response (CPM), Mean ± SD: 568531 ± 6200 CPM
[1]; MLR, 5 days, drug 100.000 μm
  Proliferative response (CPM), Mean ± SD: 29717 ± 3146 CPM
[1]; MLR, 5 days, drug 1000.000 μm
  Proliferative response (CPM), Mean ± SD: 22583 ± 2490 CPM
[1]; Mus musculus, Splenocyte, 120 h, MLR, 5 days, drug 0.010 μm, read-out: % Control
  activity at 0.01 µM: 79%
[1]; Mus musculus, Splenocyte, 120 h, MLR, 5 days, drug 0.100 μm, read-out: % Control
  activity at 0.1 µM: 99%
[1]; Mus musculus, Splenocyte, 120 h, MLR, 5 days, drug 1.000 μm, read-out: % Control
  activity at 1 µM: 131%
[1]; Mus musculus, Splenocyte, 120 h, MLR, 5 days, drug 10.000 μm, read-out: % Control
  activity at 10 µM: 136%
[1]; Mus musculus, Splenocyte, 120 h, MLR, 5 days, drug 100.000 μm, read-out: % Control
  activity at 100 µM: 71%
[1]; Mus musculus, Splenocyte, 120 h, MLR, 5 days, drug 1000.000 μm, read-out: % Control
  activity at 1000 µM: 54%
[2]
  Effect on Con A response (in words): no inhibitory effect on the Con A response
[2]; Con A 3 μg/ml, drug 0.010 μm
  Proliferative response (CPM), Mean ± SD: 343389 ± 21927 CPM
[2]; Con A 3 μg/ml, drug 0.100 μm
  Proliferative response (CPM), Mean ± SD: 333419 ± 31211 CPM
[2]; Con A 3 μg/ml, drug 1.000 μm
  Proliferative response (CPM), Mean ± SD: 340397 ± 25586 CPM
[2]; Con A 3 μg/ml, drug 10.000 μm
  Proliferative response (CPM), Mean ± SD: 365771 ± 2876 CPM
[2]; Con A 3 μg/ml, drug 100.000 μm
  Proliferative response (CPM), Mean ± SD: 313504 ± 279 CPM
[2]; Con A 3 μg/ml, drug 1000.000 μm
  Proliferative response (CPM), Mean ± SD: 273418 ± 14954 CPM
[2]; Mus musculus, Splenocyte, 72 h, Con A 3 μg/ml, drug 0.010 μm, read-out: % Control
  activity at 0.01 µM: 173%
[2]; Mus musculus, Splenocyte, 72 h, Con A 3 μg/ml, drug 0.100 μm, read-out: % Control
  activity at 0.1 µM: 168%
[2]; Mus musculus, Splenocyte, 72 h, Con A 3 μg/ml, drug 1.000 μm, read-out: % Control
  activity at 1 µM: 172%
[2]; Mus musculus, Splenocyte, 72 h, Con A 3 μg/ml, drug 10.000 μm, read-out: % Control
  activity at 10 µM: 185%
[2]; Mus musculus, Splenocyte, 72 h, Con A 3 μg/ml, drug 100.000 μm, read-out: % Control
  activity at 100 µM: 158%
[2]; Mus musculus, Splenocyte, 72 h, Con A 3 μg/ml, drug 1000.000 μm, read-out: % Control
  activity at 1000 µM: 138%
